For the assay, the system named is U373 MG. The assay can be described thus: Antimitotic activity against human glioma line U-373 cell by measuring the incorporation of [3H]thymidine in cultures of the cells. It is filed as functional, cell-based, U-373MG ATCC.

A word on the IC50: it is the concentration needed to halve the response being measured. Lower therefore signals greater potency in that assay.

On to `CCCCCCCCO[C@H]1O[C@@H](COCC(CO)(CO)CO)[C@@H](O)[C@H](O)[C@@H]1NC(C)=O`, for which the IC50 came out at 43 µM.

Values taken from ChEMBL document CHEMBL1136749, “Central neural tumor destruction by controlled release of a synthetic glycoside dispersed in a biodegradable polymeric matrix” (J Med Chem, 2003).
